Test results as given in the supplement of paper PMC10307832.

What was measured:
Experiment in all cases: relative viability (nuclei count vs DMSO), 5 days (fraction); higher = more cells survive
[1] = compound: CC1=C(C(=NN1)C)CC2=C(C3=C(S2)N(C(=O)N(C3=O)C)CC(C)C)C(=O)N4C[C@@H](CO4)O + NC(=O)Nc1cc(-c2cccc(F)c2)sc1C(=O)N[C@H]1CCCNC1 [AZD7762] (partner 0.2 µM)
How it was run: (§1)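 Relative viability equals treated-well nuclei counts divided by vehicle-well nuclei counts. Counts came from 4× images of lung cancer cell lines grown in 1536-well plates for 5 days after pin-tool dosing on the day after seeding. Dosing used one drug alone or a fixed anchor-drug dose plus five library-drug doses (not always all listed) in √10 steps, and values are medians of duplicate plates.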

[2] = compound: CC1=C(C(=NN1)C)CC2=C(C3=C(S2)N(C(=O)N(C3=O)C)CC(C)C)C(=O)N4C[C@@H](CO4)O + O=C(c1cc(Cc2n[nH]c(=O)c3ccccc23)ccc1F)N1CCN(C(=O)C2CC2)CC1 [Olaparib] (partner 8 µM)
How it was run: as §1

IDH-C35 + Foretinib = compound: Cc1ccccc1C(C(=O)NC1CCCCC1)N(C(=O)Cn1ccnc1C)c1cccc(F)c1 [IDH-C35] + COc1cc2c(Oc3ccc(NC(=O)C4(C(=O)Nc5ccc(F)cc5)CC4)cc3F)ccnc2cc1OCCCN1CCOCC1 [Foretinib] (partner 0.25 µM)
How it was run: as §1

IDH-C35 + Crizotinib = compound: Cc1ccccc1C(C(=O)NC1CCCCC1)N(C(=O)Cn1ccnc1C)c1cccc(F)c1 [IDH-C35] + C[C@@H](Oc1cc(-c2cnn(C3CCNCC3)c2)cnc1N)c1c(Cl)ccc(F)c1Cl [Crizotinib] (partner 1 µM)
How it was run: as §1

Cell Line | relative viability ([1]; first compound 0.0025 µM) | relative viability ([1]; first compound 0.007906 µM) | relative viability ([1]; first compound 0.025 µM) | relative viability ([1]; first compound 0.07906 µM) | relative viability ([1]; first compound 0.25 µM) | relative viability ([2]; first compound 0.0025 µM) | relative viability ([2]; first compound 0.007906 µM) | relative viability ([2]; first compound 0.025 µM) | relative viability ([2]; first compound 0.07906 µM) | relative viability ([2]; first compound 0.25 µM) | relative viability (IDH-C35 + Foretinib; first compound 0.08 µM) | relative viability (IDH-C35 + Foretinib; first compound 0.253 µM) | relative viability (IDH-C35 + Foretinib; first compound 0.8 µM) | relative viability (IDH-C35 + Foretinib; first compound 2.53 µM) | relative viability (IDH-C35 + Foretinib; first compound 8 µM) | relative viability (IDH-C35 + Crizotinib; first compound 0.08 µM) | relative viability (IDH-C35 + Crizotinib; first compound 0.253 µM) | relative viability (IDH-C35 + Crizotinib; first compound 0.8 µM) | relative viability (IDH-C35 + Crizotinib; first compound 2.53 µM) | relative viability (IDH-C35 + Crizotinib; first compound 8 µM)
201T | 0.67 | 0.673 | 0.573 | 0.586 | 0.677 | 0.852 | 0.815 | 0.828 | 0.845 | 0.853 | 1.12 | 1.06 | 1.08 | 1.01 | 1.05 | 1.03 | 1.02 | 0.982 | 0.999 | 0.997
A549 |  |  |  |  |  | 0.322 | 0.391 | 0.355 | 0.358 | 0.4 | 0.881 | 0.863 | 0.968 | 1.05 | 0.835 | 0.819 | 0.794 | 0.814 | 0.669 | 0.744
A-427 | 0.73 | 0.691 | 0.752 | 0.847 | 0.677 | 0.762 | 0.769 | 0.706 | 0.729 | 0.886 | 1.01 | 1 | 0.967 | 0.903 | 0.944 | 0.907 | 0.983 | 0.849 | 0.891 | 0.791
ABC-1 | 0.777 | 0.631 | 0.732 | 0.878 | 0.841 | 0.487 | 0.519 |  | 0.485 | 0.517 | 1.16 | 0.967 | 0.918 | 1.08 | 1.21 | 0.876 | 1.21 | 1.3 | 1.15 | 1.09
BEN | 0.637 | 0.631 | 0.599 | 0.51 | 0.646 | 0.868 | 0.709 | 0.684 | 0.806 | 0.712 | 0.631 | 0.685 | 0.616 | 0.629 | 0.593 | 0.932 | 0.738 | 0.803 | 0.942 | 0.861
CAL-12T | 0.632 | 0.578 | 0.647 | 0.6 | 0.566 | 0.732 | 0.704 | 0.67 | 0.755 | 0.772 | 1.13 | 1.22 | 1.1 | 1.01 | 1.13 | 0.556 | 0.792 | 0.682 | 0.603 | 0.603
COR-L23 |  |  |  |  |  | 0.404 | 0.33 | 0.298 | 0.328 | 0.325 | 0.969 | 0.95 | 0.891 | 1.01 | 1.03 | 0.634 | 0.626 | 0.619 | 0.673 | 0.667
COR-L 105 |  |  |  |  |  | 0.604 | 0.587 | 0.617 | 0.771 | 0.656 | 0.948 | 1.16 | 0.898 | 1.07 | 0.898 | 0.745 | 0.942 | 0.688 | 0.72 | 0.921
Calu-6 |  |  |  |  |  | 0.532 | 0.501 | 0.557 | 0.59 | 0.603 | 0.884 | 0.899 | 0.908 | 0.919 | 0.868 | 0.765 | 0.745 | 0.804 | 0.833 | 0.742
ChaGo-K-1 | 0.938 | 0.919 | 0.855 | 0.823 | 0.889 | 0.466 | 0.42 | 0.414 | 0.404 | 0.435 | 0.871 | 0.973 | 0.913 | 0.928 | 0.839 | 1.16 | 1.05 | 1.09 | 0.923 | 1.09
EBC-1 |  |  |  |  |  | 0.738 | 0.705 | 0.718 | 0.836 | 0.748 | 0.0931 | 0.109 | 0.0986 | 0.108 | 0.109 | 0.181 | 0.187 | 0.168 | 0.194 | 0.161
EKVX | 0.803 | 0.721 | 0.761 | 0.517 | 0.725 | 1.02 | 0.969 | 0.892 | 0.775 | 0.988 | 0.832 | 1.02 | 0.75 | 0.703 | 0.614 | 0.953 | 0.74 | 0.688 | 0.935 | 1.08
EMC-BAC-2 | 1.21 | 1.2 | 1.07 | 1.19 | 1.01 | 0.546 | 0.464 | 0.474 | 0.489 | 0.527 | 0.947 | 1.04 | 1.1 | 0.925 | 0.944 | 0.809 | 0.731 | 0.744 | 0.713 | 0.743
EPLC-272H | 0.252 | 0.21 | 0.225 | 0.144 | 0.231 | 0.69 | 0.778 | 0.771 | 0.844 | 1.09 | 0.659 | 0.828 | 0.751 | 0.71 | 0.733 | 1.09 | 0.805 | 0.855 |  | 1.03
H3255 | 0.929 | 0.927 | 0.755 | 0.85 | 0.936 | 0.555 | 0.56 | 0.52 | 0.546 | 0.576 | 1.06 | 0.838 | 0.886 | 1.04 | 0.854 | 0.898 | 0.9 | 0.897 | 0.773 | 0.848
HARA | 0.281 | 0.288 | 0.324 | 0.297 | 0.218 | 1.1 | 0.76 | 0.689 | 0.542 | 0.81 | 0.876 | 0.906 | 0.885 |  | 1.01 | 1.02 | 0.986 | 0.997 | 1.09 | 1.05
HCC-15 | 1.34 | 1.37 | 1.13 | 1.17 | 1.29 | 0.721 | 0.707 | 0.69 | 0.697 | 0.766 | 1.07 | 0.974 | 0.938 |  | 0.869 | 0.854 | 0.804 | 0.802 | 0.814 | 0.731
